From patent publication US20060025419A1, “Imidazoquinoxaline compound for the treatment of melanoma” (priority 2004, published 2006)

What was measured:
CXCL1 [1] = assay: CXCL1 ELISA of serum of mice bearing melanoma tumors; format: in vivo
Procedure: (§1) FIGS. 2A-2D. […] SK-Mel-5 cells were plated in 6-well plates (1.5×10^5 cells per well) and then cotransfected with 1 μg of HIV long terminal repeat NF-κB-luciferase vector and β-galactosidase vector DNA using Lipofectamine Plus reagent. Twenty-four hours after transfection, cells in duplicate plates were treated with 0, 0.1, 1 and 10 μM of BMS-345541in DMSO and incubated for an additional 36 h. Cell extract was prepared and luciferase activity was detected. Luciferase activity was normalized to β-galactosidase activity. […] ATP. The [γ-^32P]-labeled IκBα protein was visualized by autoradiography. […] The supernatants from B were cleared by centrifugation, or (FIG. 2D) sera were collected from mice, and subjected to ELISA assay for CXCL1 according to the manufacture's protocol. Data shown are from a representative data set from two experiments performed in duplicate (total n=4 for each point). For ELISA; the mean value is representative of serum samples from five mice.
(§2) To quantify the CXCL1 expression levels in vivo and in vitro, serum was collected at the end of the experiments from mice bearing SK-Mel-5 melanoma tumors or from the cleared supernatants of melanoma cell culture medium. Briefly, 1.5×10^5 of SK-Mel-5 cells/well were seeded in six-well plates in duplicate in DMEM/F12 medium containing 10% FBS.

CXCL1 [2] = assay: CXCL1 ELISA of melanoma cell culture medium; format: cell-based, human; conditions: SK-Mel-5 supernatant, 14 h
Procedure: as §1, §2

NF-κB/p65 = assay: Time-lapse microscopy of GFP-p65 translocation; format: cell-based, human; conditions: SK-Mel-5, 10 μM, 7 h observation
Procedure: SK-Mel-5 cells (2×10^5 ) were cultured in 25 cm^2 culture flasks (Corning Inc., Corning, N.Y.) and transfected with 0.5 μg of GFP-p65 expression vector DNA for 14 h. […] The expression and localization of EGFP-p65 in live cells was recorded using time-lapse video microscopy (FIGS. 3A). The cytosolic and nuclear green fluorescent density was quantified by the Openlab software program (FIGS. 3B).
To test this possibility, SK-Mel-5 cells were transfected with a GFP-p65 expression vector to monitor the nuclear translocation in living cells. […] Time-lapse video microscopy was used to follow the localization of GFP-p65 in live cells. Images were captured at one-hour intervals over a 7 h observation period. The cytosol versus nuclear green fluorescent density was quantified by the Openlab software program.

SK-Mel-5 cells [3] = assay: Mitochondrial membrane potential (Δψm), DiOC6 and FACS; format: cell-based, human; conditions: SK-Mel-5, 10 μM
Procedure: FIGS. 5A-5E. […] (FIG. 5A) Redistribution of Bcl-2 and Bax in mitochondria. […] Subcellular mitochondria and cytoplasm were prepared and subjected to Western blot analysis for Bcl-2 and Bax. (FIG. 5B) Dissipation of mitochondrial Δψm. […] After exposure, mitochondria were isolated and incubated with 80 μM 3,3′dihexyloxacarbocyanine iodide (DiOC6) at 37° C. for 15 min. Δψm was determined by FACS analysis using 484/530 nm filters within 10 min while gating the forward and sideward scatters on intact mitochondria (FIG. 5C). (FIG. 5D) Release of cytochrome-C and AIF. […] Subcellular extracts were prepared and subjected to Western blot analysis for cytochrome-C and AIF. […] The supernatant was assessed for cytochrome-c release. […]
For quantification of cell death, DNA content was analyzed on a FACScan (Becton Dickinson, San Jose, Calif.). […] Cell fluorescence was measured by flow cytometry with 488 nm excitation and 620 nm emission filters and data were analyzed using DNA content histogram deconvolution software (Multicycle, Phoenix Flow Systems). […] ROS were determined by FACS analysis with 488 nm excitation and 585 emission filters.
Mitochondria play a crucial role in the regulation of programmed cell death (Zamzami et al., 1995a; 1995b; 1996a; 1996b). […] The change in mitochondrial membrane potential (Δψm) was determined by FACS analysis after the mitochondria were stained with DiOC6.

SK-Mel-5 cells [4] = assay: TUNEL assay of cultured cells by flow cytometry; format: cell-based, human; conditions: 36 h
Procedure: FIGS. 4A-4H. […] Paraffin-embedded tumor tissues were subjected to H&E staining (FIGS. 4C & D) and DeadEnd Fluorometric TUNEL-assay for detection of apoptosis (FIGS. 4E & F). The TUNEL-positive cells are visualized in green fluorescence in a red (Propidium Iodide) background by fluorescence microscopy. […] After 36 h incubation, cells were collected and fixed with 1% formaldehyde and 70% ice-cold ethanol. The apoptotic cells were examined using TUNEL-assay and analyzed by flow cytometry through measuring fluorescein-12-dUTP at 520 nm. The apoptotic rate is indicated in each box. Data shown are represented one of three independent experiments. […] Cells were fixed and stained with Propidium iodide. Cell fluorescence was measured by flow cytometry and the data were analyzed using DNA content histogram deconvolution software (Multicycle from Phoenix Flow Systems). The percentage of apoptotic cells with fragmented DNA (PI intensity sub-G0/G1) is indicated at each time point. The experiments were repeated twice, in duplicates for each point (total n=4).
In melanoma, constitutive activation of NF-κB confers tumor survival capacity and escape from apoptosis (Richmond, 2002). […] Apoptotic cells were labeled using DeadEnd Fluorometric TUNEL reagent and analyzed by flow cytometry. […] Thirty-six hours after transfection, cells were collected, labeled with TUNEL reagent and analyzed by flow cytometry. […] Induction of DNA fragmentation, a hallmark of apoptosis, was evaluated by staining DNA with ethidium bromide followed by quantization by FACS analysis.

Cc1ccc2nc(NCCN)c3ncc(C)n3c2c1.Cl [BMS-345541, 4(2′-aminoethyl)amino-1,8-dimethylimidazo(1,2-a)quinoxaline]
CXCL1 expression in mouse sera (CXCL1 [1]): suppressed in a concentration-dependent manner | CXCL1 expression in melanoma cell cultures (CXCL1 [2]): suppressed in a concentration-dependent manner | GFP-p65 localization (NF-κB/p65): consistently retained GFP-p65 in the cytoplasm | loss of mitochondrial membrane potential (SK-Mel-5 cells [3]; 24 h): 16±1.5% | loss of mitochondrial membrane potential (SK-Mel-5 cells [3]; 48 h): 87±5.4% | increase in apoptotic cells vs vehicle (TUNEL) (SK-Mel-5 cells [4]; SK-Mel-5, 1.0 μM): 2 fold | increase in apoptotic cells vs vehicle (TUNEL) (SK-Mel-5 cells [4]; SK-Mel-5, 10 μM): 3.3 fold | increase in apoptotic cells vs vehicle (TUNEL) (SK-Mel-5 cells [4]; SK-Mel-5, 100 μM): 4 fold
